Test results as given in patent publication US10077261B2, “Imidazolin-5-one derivative useful as FASN inhibitors for the treatment of cancer” (Janssen Pharmaceutica NV, priority 2012, dated 2018).

Tests used:
[1] = target: T1, hFASN enzyme (full length) (Homo sapiens, UniProt P49327); test: Fatty Acid Synthase (FASN) inhibition scintillation proximity assay; type: biochemical; conditions: for inhibition at 10 µM: read-out: Human FASN % inhibition @ 10 μM, 10 μM test compound; for IC50: read-out: Human FASN pIC50 (converted)
T1 construct: 10 μL hFASN enzyme (full length, 300 ng, purified in house); made in house
How it was run: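 Scintillation proximity format: in-house full-length enzyme, 300 ng per well, pH 7.5 phosphate/DTT buffer, ³H-acetyl-CoA and malonyl-CoA. Emission counted on LEADseeker at 610 nm at least 24 h after stopping.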

A2780 ovarian cells [2] = test: A2780 ovarian cell proliferation assay in lipid reduced medium, without palmitate (MTT); type: cell-based; conditions: Homo sapiens, A2780, 96 h; read-out: pIC50 A2780 Ovarian Cell, Without Palmitate (converted)
[3] = target: Fatty Acid Synthase Keto-reductase Domain (FASN KR) (Homo sapiens, UniProt P49327); test: Fatty Acid Synthase keto-reductase domain (FASN KR) inhibition, NADPH oxidation at 340 nm
Method: After 20 minutes incubation at room temperature the plate was measured again (T2).
The decrease in absorbance was calculated as (Absorbance before incubation T1)−(Absorbance following incubation T2).
A plot of Controlmin versus test compound concentration was fitted to a 4-parameter logistic curve using a non-linear least squares regression method.

[4] = system: PC-3M-Luc-C6 prostate cells; test: In vitro PC-3M-Luc-C6 prostate cell proliferation assay in lipid reduced medium; type: cell-based; conditions: 96 h, read-out: pIC50 PC-3M-Luc-C6 prostate cell (converted)
[5] = system: LNCaP-Vancouver prostate cells; test: In vitro LNCaP Vancouver prostate cell proliferation assay in lipid reduced medium; type: cell-based; conditions: read-out: pIC50 LNCaP_Vancouver prostate cell (converted)
A2780 ovarian cells [6] = test: A2780 ovarian cell proliferation assay in lipid reduced medium, with palmitate (MTT); type: cell-based; conditions: Homo sapiens, A2780, 96 h; read-out: pIC50 A2780 Ovarian Cell, With Palmitate (converted)
How it was run: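 In this palmitate-supplemented format, compound dilutions (30 μM down to 0.01 μM) are added to cells in lipid-reduced serum with 25 μM palmitate, 0.2% fatty-acid-free BSA and 0.25% ethanol. After four days (96 h) MTT absorbance at 544 nm is recorded and fitted by minimum sum of squares.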

T1 sequence (P49327 whole entry): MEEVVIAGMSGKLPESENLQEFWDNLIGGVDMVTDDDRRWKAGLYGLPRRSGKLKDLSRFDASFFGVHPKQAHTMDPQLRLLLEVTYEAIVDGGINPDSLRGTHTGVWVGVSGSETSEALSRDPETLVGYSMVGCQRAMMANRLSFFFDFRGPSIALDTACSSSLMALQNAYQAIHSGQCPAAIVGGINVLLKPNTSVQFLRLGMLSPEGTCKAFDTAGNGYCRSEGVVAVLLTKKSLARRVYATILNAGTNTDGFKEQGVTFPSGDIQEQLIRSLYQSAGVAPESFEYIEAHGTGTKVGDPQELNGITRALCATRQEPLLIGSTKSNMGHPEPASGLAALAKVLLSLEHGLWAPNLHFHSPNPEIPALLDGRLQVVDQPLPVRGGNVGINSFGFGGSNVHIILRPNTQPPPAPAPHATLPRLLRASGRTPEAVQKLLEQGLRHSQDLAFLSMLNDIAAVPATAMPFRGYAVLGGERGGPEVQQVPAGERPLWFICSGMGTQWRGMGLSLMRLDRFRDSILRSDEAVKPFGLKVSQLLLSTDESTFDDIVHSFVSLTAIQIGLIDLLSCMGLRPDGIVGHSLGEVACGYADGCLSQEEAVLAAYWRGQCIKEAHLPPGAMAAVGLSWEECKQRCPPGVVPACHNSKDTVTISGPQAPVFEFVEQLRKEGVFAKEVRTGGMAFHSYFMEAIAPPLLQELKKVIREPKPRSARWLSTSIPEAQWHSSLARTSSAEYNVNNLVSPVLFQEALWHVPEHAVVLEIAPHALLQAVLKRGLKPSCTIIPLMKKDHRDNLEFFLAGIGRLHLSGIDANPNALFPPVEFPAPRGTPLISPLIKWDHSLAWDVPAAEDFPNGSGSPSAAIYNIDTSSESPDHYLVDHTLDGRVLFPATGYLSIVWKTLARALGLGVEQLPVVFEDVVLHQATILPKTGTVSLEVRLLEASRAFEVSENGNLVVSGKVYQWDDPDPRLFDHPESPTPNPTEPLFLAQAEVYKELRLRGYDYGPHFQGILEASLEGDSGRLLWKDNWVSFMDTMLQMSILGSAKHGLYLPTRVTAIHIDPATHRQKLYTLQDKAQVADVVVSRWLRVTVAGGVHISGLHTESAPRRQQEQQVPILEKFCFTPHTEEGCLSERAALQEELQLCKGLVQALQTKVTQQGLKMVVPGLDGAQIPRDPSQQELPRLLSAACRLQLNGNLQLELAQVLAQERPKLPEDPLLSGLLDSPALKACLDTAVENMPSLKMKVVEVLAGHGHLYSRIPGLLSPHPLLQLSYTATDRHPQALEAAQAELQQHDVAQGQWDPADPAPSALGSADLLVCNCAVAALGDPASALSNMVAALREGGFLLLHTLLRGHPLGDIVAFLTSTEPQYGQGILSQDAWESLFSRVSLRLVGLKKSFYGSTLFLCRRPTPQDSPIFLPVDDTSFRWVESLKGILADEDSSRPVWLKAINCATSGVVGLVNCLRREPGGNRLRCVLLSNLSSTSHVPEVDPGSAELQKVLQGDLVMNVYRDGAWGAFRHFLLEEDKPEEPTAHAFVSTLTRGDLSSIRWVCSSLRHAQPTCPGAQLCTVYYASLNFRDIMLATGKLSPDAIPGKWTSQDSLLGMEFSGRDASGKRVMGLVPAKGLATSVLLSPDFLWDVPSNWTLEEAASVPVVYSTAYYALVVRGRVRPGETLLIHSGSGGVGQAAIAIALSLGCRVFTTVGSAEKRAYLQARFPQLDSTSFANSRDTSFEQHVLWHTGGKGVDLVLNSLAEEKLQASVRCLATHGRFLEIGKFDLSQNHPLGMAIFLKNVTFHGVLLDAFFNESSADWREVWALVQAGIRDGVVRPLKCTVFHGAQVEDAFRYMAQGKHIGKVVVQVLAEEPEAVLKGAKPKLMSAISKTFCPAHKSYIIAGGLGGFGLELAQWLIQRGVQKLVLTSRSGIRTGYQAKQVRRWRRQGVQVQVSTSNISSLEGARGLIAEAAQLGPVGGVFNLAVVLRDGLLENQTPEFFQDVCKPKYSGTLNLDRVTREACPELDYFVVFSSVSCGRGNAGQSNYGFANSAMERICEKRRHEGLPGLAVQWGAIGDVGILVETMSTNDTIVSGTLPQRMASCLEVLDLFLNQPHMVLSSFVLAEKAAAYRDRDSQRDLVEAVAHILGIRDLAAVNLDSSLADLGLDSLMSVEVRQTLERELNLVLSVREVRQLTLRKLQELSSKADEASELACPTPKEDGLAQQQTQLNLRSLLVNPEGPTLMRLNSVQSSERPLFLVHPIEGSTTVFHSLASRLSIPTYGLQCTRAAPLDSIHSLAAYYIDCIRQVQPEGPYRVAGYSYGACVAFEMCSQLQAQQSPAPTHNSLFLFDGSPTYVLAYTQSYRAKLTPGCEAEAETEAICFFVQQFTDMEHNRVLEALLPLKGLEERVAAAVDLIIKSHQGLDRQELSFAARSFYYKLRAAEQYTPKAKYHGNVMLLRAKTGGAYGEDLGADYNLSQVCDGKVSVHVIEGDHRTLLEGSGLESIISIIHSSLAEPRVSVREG
Sequence of Fatty Acid Synthase Keto-reductase Domain (FASN KR) (P49327 whole entry, the tested form may be a part): as the sequence (P49327 whole entry) above

Compound	inhibition at 10 µM [1] [%]	IC50 [1] [nM]	IC50 (A2780 ovarian cells [2]) [nM]	IC50 [3] [nM]	IC50 [4] [nM]	IC50 [5] [nM]	IC50 (A2780 ovarian cells [6]) [nM]
O=C(C1CC1)N1CC[C@H](CN2C(=O)C3(CC3)N=C2c2ccc(-c3ccc(-c4cccc(Cl)c4)cc3)cc2)C1 [compound 412, 5-(3″-Chloro-1,1′:4′,1″-terphenyl-4-yl)-6-{[(3S)-1-(cyclopropylcarbonyl)pyrrolidin-3-yl]methyl}-4,6-diazaspiro[2.4]hept-4-en-7-one]	96	324	1620	427	575	457	> 10000
CS(=O)(=O)N1CCC2(CC1)N=C(c1ccc(-c3ccc4occc4c3)cc1)N(C[C@@H]1CCN(C(=O)C3CC3)C1)C2=O [compound 746, 2-[4-(1-Benzofuran-5-yl)phenyl]-3-{[(3R)-1-(cyclopropylcarbonyl)pyrrolidin-3-yl]methyl}-8-(methylsulfonyl)-1,3,8-triazaspiro[4.5]dec-1-en-4-one]	94	275	~1860	1070	~1660	~3890	> 10000
CC(C)n1cc(-c2ccc(-c3ccc(C4=NC5(CC5)C(=O)N4CC4CN(C(=O)C5CC5)C4)cc3)cc2)cn1 [compound 331]	100	66.1	69.2	245	148	617	5620
Cc1cc(-c2ccc3c(cnn3C)c2)ccc1C1=NC2(CC2)C(=O)N1CC1CN(C(=O)C2CCCO2)C1 (stereo not drawn) [compound 205, 5-(2-methyl-4-(1-methyl-1H-indazol-5-yl)phenyl)-6-((1-(tetrahytdro-furan-2-carbonyl)azetidin-3-yl)methyl)-4,6-diazaspiro[2.4]hept-4-en-7-one]	94	97.7	36.3	115	53.7	102	> 10000
Cc1cc(-c2ccc(-c3cnn(C(C)C)c3)cc2)ccc1C1=NC2(CC2)C(=O)N1CC1CN(C(=O)C2CC2)C1 [compound 325, 6-((1-(cyclopropanecarbonyl)azetidin-3-yl)methyl)-5-(4′-(1-isopropyl-1H-pyrazol-4-yl)-3-methyl-[1,1′-biphenyl]-4-yl)-4,6-diazaspiro[2.4]hept-4-en-7-one]	100	79.4	~49	490	83.2	363	> 10000
O=C(C1CC1)N1CC(CN2C(=O)C3(CC3)N=C2c2ccc(-c3ccc4c(cnn4CC4CC4)c3)cc2F)C1 [compound 523, 6-{[1-(Cyclopropylcarbonyl)azetidin-3-yl]methyl}-5-{4-[1-(cyclopropylmethyl)-1H-indazol-5-yl]-2-fluorophenyl}-4,6-diazaspiro[2.4]hept-4-en-7-one]	92	513	676	1480	1170	3240	> 10000
Cn1nccc1-c1ccc(-c2ccc(C3=NC4(CC4)C(=O)N3C[C@@H]3CCN(C(=O)C4(C)CC4)C3)c(F)c2)cc1 [compound 362]	96	77.6	~42.7	126	~56.2	~295	> 10000
Cc1cc(-c2ccc3c(cnn3C)c2)ccc1C1=NC2(CC2)C(=O)N1CC1CN(C(=O)C2(C)CCC2)C1 [compound 208, 5-(2-methyl-4-(1-methyl-1H-indazol-5-yl)phenyl)-6-((1-(1-methylcyclobutanecarbonyl)azetidin-3-yl)methyl)-4,6-diazaspiro[2.4]hept-4-en-7-one]	99	64.6	~72.4	105	43.7	117	6030
COc1ccc2ccc(-c3ccc(C4=NC5(CC5)C(=O)N4CC4CN(C(=O)C5(O)CC5)C4)c(F)c3)cc2c1 [compound 617, 5-[2-Fluoro-4-(7-methoxynaphthalen-2-yl)phenyl]-6-({1-[(1-hydroxycyclopropyl)carbonyl]azetidin-3-yl}methyl)-4,6-diazaspiro[2.4]hept-4-en-7-one]	100	166	245	631	646	2570	> 10000
Cc1cc(C2=NC3(CC3)C(=O)N2C[C@@H]2CCN(C(=O)C3CC3)C2)ccc1-c1ccc2sc(C)c(C)c2c1 [compound 231, (R)-6-((1-(cyclopropanecarbonyl)pyrrolidin-3-yl)methyl)-5-(4-(2,3-dimethylbenzo[b]thiophen-5-yl)-3-methylphenyl)-4,6-diazaspiro[2.4]hept-4-em-7-one]	108	100	2510	282	~1620	2190	> 6170

The next molecules have a lower IC50 [3] than those just listed; values first:

inhibition at 10 µM [1] [%]	IC50 [1] [nM]	IC50 (A2780 ovarian cells [2]) [nM]	IC50 [3] [nM]	IC50 [4] [nM]	IC50 [5] [nM]	IC50 (A2780 ovarian cells [6]) [nM]	Compound
101	50.1	~24	100	46.8	339	7240	O=C(C1CC1)N1CC(CN2C(=O)C3(CC3)N=C2c2ccc(-c3nc4ccc(Cl)cc4s3)cc2F)C1 [compound 274, 5-(4-(6-chlorobenzo[d]thiazol-2-yl)-2-fluorophenyl)-6-((1-(cyclopropanecarbonyl)azetidin-3-yl)methyl)-4,6-diazaspiro[2.4]hept-4-en-7-one]
102	38	14.8	79.4	~34.7	151	> 10000	Cn1cc(-c2ccc(-c3ccc(C4=NC5(CC5)C(=O)N4CC4CN(C(=O)C5CC5)C4)c(F)c3)cc2)cn1 [compound 322, 6-((1-(cyclopropanecarbonyl)azetidin-3-yl)methyl)-5-(3-fluoro-4′-(1-methyl-1H-pyrazol-4-yl)-[1,1′-biphenyl]-4-yl)-4,6-diazaspiro[2.4]hept-4-en-7-one]
108	41.7	~15.8	75.9	19.5	102	> 10000	Cc1cc(-c2ccc(-c3cnn(C)c3)cc2)ccc1C1=NC2(CC2)C(=O)N1C[C@@H]1CCN(C(=O)C2CC2)C1 [compound 316, (R)-6-((1-(cyclopropanecarbonyl)pyrrolidin-3-yl)methyl)-5-(3-methyl-4′-(1-methyl-1H-pyrazol-4-yl)-[1,1′-biphenyl]-4-yl)-4,6-diazaspiro[2.4]hept-4-en-7-one]
101	37.2	~10.5	75.9	19.1	100	> 10000	Cc1cc(-c2ccc3c(cnn3C)c2)ccc1C1=NC2(CC2)C(=O)N1CC1CN(C(=O)C2CCCO2)C1 (stereo in doubt) [compound 206, (S)-5-(2-methyl-4-(1-methyl-1H-indazol-5-yl)phenyl)-6-((1-(tetrahydro-furan-2-carbonyl)azetidin-3-yl)methyl)-4,6-diazaspiro[2.4]hept-4-en-7-one]
103	57.5	24.5	58.9	51.3	257	> 10000	Cc1cc2cc(-c3ccc(C4=NC5(CC5)C(=O)N4C[C@@H]4CCN(C(=O)C5CC5)C4)c(C)c3)ccc2[nH]1 [compound 317]
103	39.8	~3.63	45.7	3.24	~12.9	> 10000	Cn1ncc2cc(-c3ccc(C4=NC5(CC5)C(=O)N4C[C@@H]4CCN(C(=O)C5(C)CC5)C4)c(F)c3)ccc21 [compound 361, (R)-5-(2-fluoro-4-(1-methyl-1H-indazol-5-yl)phenyl)-6-((1-(1-methylcyclopropanecarbonyl)pyrrolidin-3-yl)methyl)-4,6-diazaspiro[2.4]hept-4-en-7-one]
108	27.5	45.7	38	~42.7	295	> 10000	Cc1cc(-c2ccc3[nH]ccc3c2)ccc1C1=NC2(CC2)C(=O)N1CC1CN(C(=O)C2CC2)C1 [compound 291, 5-(4-(1H-indol-5-yl)-2-methylphenyl)-6-((1-(cyclopropanecarbonyl)azetidin-3-yl)methyl)-4,6-diazaspiro[2.4]hept-4-en-7-one]
97	35.5	12	27.5	14.1	64.6	> 10000	O=C(C1CC1)N1CC[C@@H](CN2C(=O)C3(CC3)N=C2c2ccc(-c3ccc4[nH]ncc4c3)cc2F)C1 [compound 253, (R)-6-((1-(cyclopropanecarbonyl)pyrrolidin-3-yl)methyl)-5-(2-fluoro-4-(1H-indazol-5-yl)phenyl)-4,6-diazaspiro[2.4]hept-4-en-7-one]
